Results from patent publication US20180325115A1, “PLANT GROWTH REGULATOR COMPOSTION HAVING SYNERGISTIC EFFECT” (JIANGSU HUIFENG BIO AGRICULTURE CO., LTD., priority 2015, published 2018).

Assays:
Format in all cases: in vivo
[1] = tested on: oat; experiment: Comprehensive field test on growth regulation and yield increase for oat by thidiazuron combined with brassinolide; conditions: Examples 5.4 mg/kg, thidiazuron 5.0 mg/kg, brassinolide 0.4 mg/kg
Source text: (§1) 1. Comprehensive Test on Growth Regulation, Disease Resistance, and Yield Increase for Oat by Thidiazuron Combined with Brassinolide in Field
(§2) Application time: filling stage of oat, because diseases such as powdery mildew easily take place during the earing period.
(§3) Time of application: 1. Formulation examples of the present invention were sprayed, and the results were an average of three replicates.

[2] = tested on: leaf blight of sorghum; experiment: Disease index and prevention effect on leaf blight in the sorghum comprehensive test; conditions: early tasselling stage, mixtures 4.3 mg/kg, thidiazuron 4 mg/kg, brassinolide 0.3 mg/kg
Experimental: (§4) 1. Comprehensive Test on Growth Regulation for Sorghum by Thidiazuron Combined with Brassinolide
(§5) The thidiazuron and brassinolide were diluted with acetone to give a series of concentrations, and the stems and leaves of crops were sprayed to determine the effect of each concentration on crop growth in the field, so as to make a comprehensive evaluation with respect to the plant height and diameter, the root length, the disease resistance, the quality of fruits, and the yield.
Prevention effect=(Disease index in water control group-Disease index in treatment group)/Disease index in water control group*100%

[3] = tested on: powdery mildew of oat; experiment: Disease index and prevention effect on powdery mildew in the oat field test; conditions: Examples 5.4 mg/kg, thidiazuron 5.0 mg/kg, brassinolide 0.4 mg/kg
Source text: as §1, §2, §3

[4] = tested on: sorghum; experiment: Comprehensive test on growth regulation for sorghum by thidiazuron combined with brassinolide (plant height, stem diameter, 1000-grain weight, yield); conditions: mixtures 4.3 mg/kg, thidiazuron 4 mg/kg
Experimental: as §4, §5
Plant height control rate=(Plant height in water control group-Plant height in treatment group)/Plant height in water control group*100%
Stem diameter increase rate=(Stem diameter in water control group-Stem diameter in treatment group)/Stem diameter in water control group*100%
Increase rate in 1000-grain weight=(1000-grain weight in water control group−1000-grain weight in treatment group)/1000-grain weight in water control group*100%
Increase rate in yield per mu=(Yield per mu in water control group−Yield per mu in treatment group)/Yield per mu in water control group*100%

[5] = early tasselling stage, vs water control, brassinolide 0.3 mg/kg
[6] = maturity and harvest period, brassinolide 0.3 mg/kg
[7] = maturity and harvest period, vs water control, brassinolide 0.3 mg/kg

O=C(Nc1ccccc1)Nc1cnns1 [Thidiazuron, thidiazuron]
Plant height ([1]; 1 spray at filling stage, average of three replicates): 120.1 cm | Stem diameter [1]: 2.38 mm | Weight of 1000 grains [1]: 35.73 | Yield [1]: 627.3 667M2 | Control rate (plant height) ([1]; vs water control): 4.5% | Increase rate (stem diameter) ([1]; vs water control): 3.2% | Increase rate (weight of 1000 grains) ([1]; vs water control): 4.2% | Increase rate (yield) ([1]; vs water control): 4.3% | Disease index of leaf blight [2]: 10.4 | Prevention effect (leaf blight) ([2]; vs water control): 24.1% | Disease index of powdery mildew [3]: 13.16 | Prevention effect (powdery mildew) ([3]; vs water control): 13.3% | Plant height ([4]; early tasselling stage, 2 sprays on stems and leaves, 8 days apart, brassinolide 0.3 mg/kg (active ingredient)): 120.4 cm | Stem diameter ([4]; early tasselling stage, brassinolide 0.3 mg/kg): 2.56 cm | Control rate (plant height) [4, 5]: 3.4% | Increase rate (stem diameter) [4, 5]: 2.4% | Weight of 1000 grains [4, 6]: 22.1 | Yield [4, 6]: 555.8 kg/667M^2 | Increase rate (weight of 1000 grains) [4, 7]: 3.6% | Increase rate (yield per mu) [4, 7]: 3.5%
